Laboratory results published in article PMC4832243, “Discovery of Potent VEGFR-2 Inhibitors based on Furopyrimidine and Thienopyrimidne Scaffolds as Cancer Targeting Agents” (Scientific Reports, 2016).

How the values were obtained:
NCI-H522 = experiment: NCI 60 cell line panel (SRB), NCI-H522; type: cell-based; details: Homo sapiens; NCI-H522, Non-Small Cell Lung Cancer; single dose of 10 μM; read-out: Cell Growth Percent
HCC-2998 = experiment: NCI 60 cell line panel (SRB), HCC-2998; type: cell-based; details: Homo sapiens; HCC-2998, Colon Cancer; single dose of 10 μM; read-out: Cell Growth Percent
PC-3 = experiment: NCI 60 cell line panel (SRB), PC-3; type: cell-based; details: Homo sapiens; PC-3, Prostate Cancer; single dose of 10 μM; read-out: Cell Growth Percent
CCRF-CEM = experiment: NCI 60 cell line panel (SRB), CCRF-CEM; type: cell-based; details: Homo sapiens, Leukemia, single dose of 10 μM, read-out: Cell Growth Percent
UO-31 = experiment: NCI 60 cell line panel (SRB), UO-31; type: cell-based; details: Homo sapiens; UO-31, Renal Cancer; single dose of 10 μM; read-out: Cell Growth Percent
SK-MEL-2 = experiment: NCI 60 cell line panel (SRB), SK-MEL-2; type: cell-based; details: Homo sapiens; SK-MEL-2, Melanoma; single dose of 10 μM; read-out: Cell Growth Percent
SF-295 = experiment: NCI 60 cell line panel (SRB), SF-295; type: cell-based; details: Homo sapiens; SF-295, CNS Cancer; single dose of 10 μM; read-out: Cell Growth Percent
MDA-MB-231/ATCC = experiment: NCI 60 cell line panel (SRB), MDA-MB-231/ATCC; type: cell-based; details: Homo sapiens, Breast Cancer, single dose of 10 μM, read-out: Cell Growth Percent
CAKI-1 = experiment: NCI 60 cell line panel (SRB), CAKI-1; type: cell-based; details: Homo sapiens; CAKI-1, Renal Cancer; single dose of 10 μM; read-out: Cell Growth Percent
K-562 = experiment: NCI 60 cell line panel (SRB), K-562; type: cell-based; details: Homo sapiens, K562; K-562, Leukemia; single dose of 10 μM; read-out: Cell Growth Percent
TK-10 = experiment: NCI 60 cell line panel (SRB), TK-10; type: cell-based; details: Homo sapiens; TK-10, Renal Cancer; single dose of 10 μM; read-out: Cell Growth Percent
EKVX = experiment: NCI 60 cell line panel (SRB), EKVX; type: cell-based; details: Homo sapiens, Non-Small Cell Lung Cancer, single dose of 10 μM, read-out: Cell Growth Percent
NCI-H226 = experiment: NCI 60 cell line panel (SRB), NCI-H226; type: cell-based; details: Homo sapiens; NCI-H226, Non-Small Cell Lung Cancer; single dose of 10 μM; read-out: Cell Growth Percent
MCF7 = experiment: NCI 60 cell line panel (SRB), MCF7; type: cell-based; details: Homo sapiens; MCF7, Breast Cancer; single dose of 10 μM; read-out: Cell Growth Percent
OVCAR-3 = experiment: NCI 60 cell line panel (SRB), OVCAR-3; type: cell-based; details: Homo sapiens; OVCAR-3, Ovarian Cancer; single dose of 10 μM; read-out: Cell Growth Percent
BT-549 = experiment: NCI 60 cell line panel (SRB), BT-549; type: cell-based; details: Homo sapiens; BT-549, Breast Cancer; single dose of 10 μM; read-out: Cell Growth Percent
SW-620 = experiment: NCI 60 cell line panel (SRB), SW-620; type: cell-based; details: Homo sapiens; SW-620, Colon Cancer; single dose of 10 μM; read-out: Cell Growth Percent
NCI-H322M = experiment: NCI 60 cell line panel (SRB), NCI-H322M; type: cell-based; details: Homo sapiens, Non-Small Cell Lung Cancer, single dose of 10 μM, read-out: Cell Growth Percent
MDA-MB-435 = experiment: NCI 60 cell line panel (SRB), MDA-MB-435; type: cell-based; details: Homo sapiens; MDA-MB-435, Melanoma; single dose of 10 μM; read-out: Cell Growth Percent
SNB-19 = experiment: NCI 60 cell line panel (SRB), SNB-19; type: cell-based; details: Homo sapiens; SNB-19, CNS Cancer; single dose of 10 μM; read-out: Cell Growth Percent
NCI-H23 = experiment: NCI 60 cell line panel (SRB), NCI-H23; type: cell-based; details: Homo sapiens; NCI-H23, Non-Small Cell Lung Cancer; single dose of 10 μM; read-out: Cell Growth Percent
HCT-116 = experiment: NCI 60 cell line panel (SRB), HCT-116; type: cell-based; details: Homo sapiens; HCT-116, Colon Cancer; single dose of 10 μM; read-out: Cell Growth Percent
SF-539 = experiment: NCI 60 cell line panel (SRB), SF-539; type: cell-based; details: Homo sapiens; SF-539, CNS Cancer; single dose of 10 μM; read-out: Cell Growth Percent
786-0 = experiment: NCI 60 cell line panel (SRB), 786-0; type: cell-based; details: Homo sapiens; 786-0, Renal Cancer; single dose of 10 μM; read-out: Cell Growth Percent

Compound	activity at 10 µM (NCI-H522)	activity at 10 µM (HCC-2998)	activity at 10 µM (PC-3)	activity at 10 µM (CCRF-CEM)	activity at 10 µM (UO-31)	activity at 10 µM (SK-MEL-2)	activity at 10 µM (SF-295)	activity at 10 µM (MDA-MB-231/ATCC)	activity at 10 µM (CAKI-1)	activity at 10 µM (K-562)	activity at 10 µM (TK-10)	activity at 10 µM (EKVX)	activity at 10 µM (NCI-H226)	activity at 10 µM (MCF7)	activity at 10 µM (OVCAR-3)	activity at 10 µM (BT-549)	activity at 10 µM (SW-620)	activity at 10 µM (NCI-H322M)	activity at 10 µM (MDA-MB-435)	activity at 10 µM (SNB-19)	also measured
O=C(Nc1ccccc1)Nc1ccc(Nc2ncnc3sc4c(c23)CCCC4)cc1 [Compound 20a]	92.9%	95.3%	89.8%	92.3%	71.5%	114%	102%	91.6%	100%	99.7%	124%	102%	89.8%	96.2%	103%	109%	106%	106%	112%	95.9%	activity at 10 µM (NCI-H23): 100%; activity at 10 µM (HCT-116): 114%; activity at 10 µM (SF-539): 104%; activity at 10 µM (786-0): 110%
CCOC(=O)c1c(C)oc2ncnc(Nc3ccc(NC(=O)Nc4cccc(Cl)c4)cc3)c12 [Compound 15d]	57.1%	105%	41.2%	31.5%	50.3%	72.7%	79.5%	18.6%	90.8%	67.7%	79.1%	72.3%	54.8%	43.3%	80.8%	61.5%	88.6%	83.5%	65.8%	84.6%	activity at 10 µM (NCI-H23): 64%; activity at 10 µM (HCT-116): 50.7%; activity at 10 µM (SF-539): 16.6%; activity at 10 µM (786-0): 79.1%
CCOC(=O)c1c(C)oc2ncnc(Nc3ccc(C(=O)Nc4cccc(Cl)c4)cc3)c12 [Compound 14a]	78%	105%	78.3%	93.8%	89.5%	99.8%	115%	95.8%	99.2%	87%	102%	102%	97%	90.6%	110%	87.6%	106%	99.7%	106%	102%	melting point: 226 to 230 °C; activity at 10 µM (NCI-H23): 100%; activity at 10 µM (HCT-116): 85.5%; activity at 10 µM (SF-539): 107%; activity at 10 µM (786-0): 96.3%
COc1cccc(NC(=O)Nc2ccc(Nc3ncnc4sc5c(c34)CCCC5)cc2)c1 [Compound 20c]	81.2%	118%	89.6%	94.6%	61%	116%	99%	89%	97%	97.2%	129%	89.6%	90.1%	86.2%	99.1%	85.8%	112%	98.8%	98.5%	95.2%	melting point: 206 to 210 °C; activity at 10 µM (NCI-H23): 104%; activity at 10 µM (HCT-116): 91%; activity at 10 µM (SF-539): 60.2%; activity at 10 µM (786-0): 100%
CCOC(=O)c1c(C)oc2ncnc(Nc3ccc(NC(=O)Nc4ccc(CC)cc4)cc3)c12 [Compound 15i]	83.7%	114%	90.7%	93.7%	94.7%	120%	109%	94.6%	98.3%	98%	112%	102%	104%	94.9%	118%	84.4%	113%	102%	102%	97.9%	melting point: 242 to 246 °C; activity at 10 µM (NCI-H23): 90.7%; activity at 10 µM (HCT-116): 78.7%; activity at 10 µM (SF-539): 89%; activity at 10 µM (786-0): 99.8%
O=C(Nc1ccc(Cl)cc1)Nc1ccc(Oc2ncnc3sc4c(c23)CCCC4)cc1 [Compound 21d]	47.5%	107%	57.6%	77.9%	71.2%	104%	101%	70.1%	95.4%	84.2%	88.3%	82.9%	74%	83.2%	85.8%	112%	97.7%	103%	93.7%	79.5%	melting point: > 300 °C; activity at 10 µM (NCI-H23): 87.4%; activity at 10 µM (HCT-116): 82.6%; activity at 10 µM (SF-539): 70.9%; activity at 10 µM (786-0): 108%
CCOC(=O)c1c(C)oc2ncnc(Nc3ccc(C(=O)NCCc4ccccc4)cc3)c12 [Compound 14e]	66.9%	91.4%	59.2%	80.9%	97.3%	82.4%	90.4%	85.6%	92.5%	88.9%	102%	90.3%	63.1%	78.6%	97.2%	67.3%	105%	92.9%	87.5%	84%	melting point: 176 to 180 °C; activity at 10 µM (NCI-H23): 81.8%; activity at 10 µM (HCT-116): 64.7%; activity at 10 µM (SF-539): 58.9%; activity at 10 µM (786-0): 74.9%
O=C(Nc1ccc(Nc2ncnc3sc4c(c23)CCCC4)cc1)Nc1cccc(Cl)c1 [Compound 20d]	92.1%	103%	96%	97.7%	90.9%	116%	96.8%	101%	97.2%	110%	108%	96.9%	103%	91.9%	110%	100%	108%	104%	104%	108%	activity at 10 µM (NCI-H23): 103%; activity at 10 µM (HCT-116): 112%; activity at 10 µM (SF-539): 90.8%; activity at 10 µM (786-0): 103%
